# Laboratory results: PubChem BioAssay (NCI)
#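 96-well plates; 48 h exposure; 5 concentrations. Endpoints by linear interpolation between flanking doses. Not reached: highest tested concentration assigned. Abbreviation: GI50, concentration required for 50% inhibition of growth. TGI: concentration producing complete growth inhibition.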
# What was measured:
# Assay in all cases: inhibition of tumour cell growth, NCI panel, 48 h
# 786-0 renal = test system: 786-0 renal
# A498 renal = test system: A498 renal
# A549 NSCLC = test system: A549 NSCLC
# ACHN renal = test system: ACHN renal
# BT-549 breast = test system: BT-549 breast
# CAKI-1 renal = test system: CAKI-1 renal
# CCRF-CEM leukemia = test system: CCRF-CEM leukemia
# COLO 205 colon = test system: COLO 205 colon
# DU-145 prostate = test system: DU-145 prostate
# EKVX NSCLC = test system: EKVX NSCLC
# HCC-2998 colon = test system: HCC-2998 colon
# HCT-116 colon = test system: HCT-116 colon
# HCT-15 colon = test system: HCT-15 colon
# HL-60(TB) leukemia = test system: HL-60(TB) leukemia
# HOP-62 NSCLC = test system: HOP-62 NSCLC
# HOP-92 NSCLC = test system: HOP-92 NSCLC
# HS 578T breast = test system: HS 578T breast
# HT29 colon = test system: HT29 colon
# IGROV1 ovarian = test system: IGROV1 ovarian
# K-562 leukemia = test system: K-562 leukemia
# KM12 colon = test system: KM12 colon
# LOX IMVI melanoma = test system: LOX IMVI melanoma
# M14 melanoma = test system: M14 melanoma
# MALME-3M melanoma = test system: MALME-3M melanoma
# MCF7 breast = test system: MCF7 breast
# MDA-MB-231 breast = test system: MDA-MB-231 breast
# MDA-MB-435 = test system: MDA-MB-435
# MDA-MB-468 breast = test system: MDA-MB-468 breast
# MOLT-4 leukemia = test system: MOLT-4 leukemia
# NCI-H226 lung = test system: NCI-H226 lung
# NCI-H23 lung = test system: NCI-H23 lung
# NCI-H460 lung = test system: NCI-H460 lung
# NCI-H522 lung = test system: NCI-H522 lung
# NCI/ADR-RES ovarian = test system: NCI/ADR-RES ovarian
# OVCAR-3 ovarian = test system: OVCAR-3 ovarian
# OVCAR-4 ovarian = test system: OVCAR-4 ovarian
# OVCAR-5 ovarian = test system: OVCAR-5 ovarian
# OVCAR-8 ovarian = test system: OVCAR-8 ovarian
# PC-3 prostate = test system: PC-3 prostate
# RPMI-8226 leukemia = test system: RPMI-8226 leukemia
# RXF 393 renal = test system: RXF 393 renal
# SF-268 CNS = test system: SF-268 CNS
# SF-295 CNS = test system: SF-295 CNS
# SF-539 CNS = test system: SF-539 CNS
# SK-MEL-2 melanoma = test system: SK-MEL-2 melanoma
# SK-MEL-28 melanoma = test system: SK-MEL-28 melanoma
# SK-MEL-5 melanoma = test system: SK-MEL-5 melanoma
# SK-OV-3 ovarian = test system: SK-OV-3 ovarian
# SN12C renal = test system: SN12C renal
# SNB-19 CNS = test system: SNB-19 CNS
# SNB-75 CNS = test system: SNB-75 CNS
# SR leukemia = test system: SR leukemia
# SW-620 colon = test system: SW-620 colon
# T-47D breast = test system: T-47D breast
# TK-10 renal = test system: TK-10 renal
# U251 CNS = test system: U251 CNS
# UACC-257 melanoma = test system: UACC-257 melanoma
# UACC-62 melanoma = test system: UACC-62 melanoma
# UO-31 renal = test system: UO-31 renal
smiles,measurement,setting,value
COc1cnc2c(c1)C(=O)c1c-2n(CCCNC(C)C)c(=O)c2cc(OC)c(OC)cc12,GI50,786-0 renal,5.51 µM
same,TGI,786-0 renal,19.1 µM
same,GI50,A498 renal,14.2 µM
same,TGI,A498 renal,27.5 µM
same,GI50,A549 NSCLC,5.7 µM
same,TGI,A549 NSCLC,23.8 µM
same,GI50,ACHN renal,1.75 µM
same,TGI,ACHN renal,13.7 µM
same,GI50,BT-549 breast,4.26 µM
same,TGI,BT-549 breast,20.6 µM
same,GI50,CAKI-1 renal,2.17 µM
same,TGI,CAKI-1 renal,15.7 µM
same,GI50,CCRF-CEM leukemia,0.256 µM
same,TGI,CCRF-CEM leukemia,89.9 µM
same,GI50,COLO 205 colon,5.74 µM
same,TGI,COLO 205 colon,22.6 µM
same,GI50,DU-145 prostate,1.27 µM
same,TGI,DU-145 prostate,13.5 µM
same,GI50,EKVX NSCLC,10.4 µM
same,TGI,EKVX NSCLC,22.4 µM
same,GI50,HCC-2998 colon,3.09 µM
same,TGI,HCC-2998 colon,16.8 µM
same,GI50,HCT-116 colon,1.02 µM
same,TGI,HCT-116 colon,12.8 µM
same,GI50,HCT-15 colon,1.86 µM
same,TGI,HCT-15 colon,16.3 µM
same,GI50,HL-60(TB) leukemia,3.54 µM
same,TGI,HL-60(TB) leukemia,17.2 µM
same,GI50,HOP-62 NSCLC,0.702 µM
same,TGI,HOP-62 NSCLC,7.94 µM
same,GI50,HOP-92 NSCLC,9.11 µM
same,TGI,HOP-92 NSCLC,23.9 µM
same,GI50,HS 578T breast,11.2 µM
same,TGI,HS 578T breast,32.6 µM
same,GI50,HT29 colon,1.43 µM
same,TGI,HT29 colon,10.1 µM
same,GI50,IGROV1 ovarian,10.8 µM
same,TGI,IGROV1 ovarian,23.3 µM
same,GI50,K-562 leukemia,0.496 µM
same,TGI,K-562 leukemia,22.5 µM
same,GI50,KM12 colon,8.02 µM
same,TGI,KM12 colon,21.9 µM
same,GI50,LOX IMVI melanoma,1.19 µM
same,TGI,LOX IMVI melanoma,4.6 µM
same,GI50,M14 melanoma,4.91 µM
same,TGI,M14 melanoma,20 µM
same,GI50,MALME-3M melanoma,11.5 µM
same,TGI,MALME-3M melanoma,24 µM
same,GI50,MCF7 breast,0.222 µM
same,TGI,MCF7 breast,11.9 µM
same,GI50,MDA-MB-231 breast,3.35 µM
same,TGI,MDA-MB-231 breast,17.9 µM
same,GI50,MDA-MB-435,6.52 µM
same,TGI,MDA-MB-435,20.3 µM
same,GI50,MDA-MB-468 breast,0.68 µM
same,TGI,MDA-MB-468 breast,7.75 µM
same,GI50,MOLT-4 leukemia,0.107 µM
same,TGI,MOLT-4 leukemia,5.59 µM
same,GI50,NCI-H226 lung,2.55 µM
same,TGI,NCI-H226 lung,16.6 µM
same,GI50,NCI-H23 lung,0.977 µM
same,TGI,NCI-H23 lung,11.3 µM
same,GI50,NCI-H460 lung,0.3 µM
same,TGI,NCI-H460 lung,11.9 µM
same,GI50,NCI-H522 lung,0.536 µM
same,TGI,NCI-H522 lung,12.6 µM
same,GI50,NCI/ADR-RES ovarian,1.73 µM
same,TGI,NCI/ADR-RES ovarian,14.6 µM
same,GI50,OVCAR-3 ovarian,8.99 µM
same,TGI,OVCAR-3 ovarian,22.6 µM
same,GI50,OVCAR-4 ovarian,2.5 µM
same,TGI,OVCAR-4 ovarian,7.63 µM
same,GI50,OVCAR-5 ovarian,12.3 µM
same,TGI,OVCAR-5 ovarian,25.5 µM
same,GI50,OVCAR-8 ovarian,6.05 µM
same,TGI,OVCAR-8 ovarian,22.1 µM
same,GI50,PC-3 prostate,6.53 µM
same,TGI,PC-3 prostate,30.5 µM
same,GI50,RPMI-8226 leukemia,1.39 µM
same,TGI,RPMI-8226 leukemia,14.9 µM
same,GI50,RXF 393 renal,1.35 µM
same,TGI,RXF 393 renal,5.71 µM
same,GI50,SF-268 CNS,1.31 µM
same,TGI,SF-268 CNS,19.1 µM
same,GI50,SF-295 CNS,0.29 µM
same,TGI,SF-295 CNS,12.6 µM
same,GI50,SF-539 CNS,1.36 µM
same,TGI,SF-539 CNS,3.76 µM
same,GI50,SK-MEL-2 melanoma,18.5 µM
same,TGI,SK-MEL-2 melanoma,37.8 µM
same,GI50,SK-MEL-28 melanoma,16 µM
same,TGI,SK-MEL-28 melanoma,29.7 µM
same,GI50,SK-MEL-5 melanoma,1.7 µM
same,TGI,SK-MEL-5 melanoma,11.9 µM
same,GI50,SK-OV-3 ovarian,1.52 µM
same,TGI,SK-OV-3 ovarian,8.18 µM
same,GI50,SN12C renal,4.19 µM
same,TGI,SN12C renal,> 100 µM
same,GI50,SNB-19 CNS,1.2 µM
same,TGI,SNB-19 CNS,12.8 µM
same,GI50,SNB-75 CNS,0.155 µM
same,TGI,SNB-75 CNS,7.49 µM
same,GI50,SR leukemia,0.369 µM
same,TGI,SR leukemia,4.85 µM
same,GI50,SW-620 colon,0.946 µM
same,TGI,SW-620 colon,20.5 µM
same,GI50,T-47D breast,4.97 µM
same,TGI,T-47D breast,22.2 µM
same,GI50,TK-10 renal,14.2 µM
same,TGI,TK-10 renal,28 µM
same,GI50,U251 CNS,0.667 µM
same,TGI,U251 CNS,17.2 µM
same,GI50,UACC-257 melanoma,12 µM
same,TGI,UACC-257 melanoma,25.2 µM
same,GI50,UACC-62 melanoma,2.43 µM
same,TGI,UACC-62 melanoma,16.1 µM
same,GI50,UO-31 renal,5.88 µM
same,TGI,UO-31 renal,19.7 µM
